Measurements published in ChEMBL document CHEMBL5052843, “Inhibitors of apol1 and methods of using same” (2020).

Tests used:
[1] = system: Trypanosoma brucei brucei; test: Antitrypanosomal activity against Trypanosoma brucei brucei assessed as trypanosome lysis using recombinant APOL1 protein G1 variant and measured by Alamar blue based fluorescene assay; assay type: functional, organism-based
[2] = target: Apolipoprotein L1 (Homo sapiens, UniProt O14791); test: Inhibition of APOL1 G1 variant in human HEK293-T-REx cells measured by Thallium assay; assay type: cell-based

| IC50 [2] | SMILES | IC50 [1] |
| --- | --- | --- |
| < 250 nM | Cc1cccc2c(CCC(=O)N[C@@H]3C(=O)NC[C@H]3O)c(-c3ccccc3)[nH]c12 | – |
| < 250 nM | O=C(CCc1c(-c2ccc(F)cc2)[nH]c2c(F)c(F)c(F)cc12)N[C@@H]1C(=O)NC[C@H]1O | – |
| 250 nM | COc1cc(F)cc2c(CCC(=O)N[C@H]3CCNC3=O)c(-c3ccc(F)cc3)[nH]c12 | – |
| < 250 nM | O=C(CCc1c(-c2ccc(F)cc2)[nH]c2c(F)cc(Cl)cc12)N[C@H]1CCNC1=O | – |
| > 1000 nM | COc1ccc2[nH]c(-c3ccc(F)cc3)c(CCC(=O)N[C@H]3CCNC3=O)c2c1 | – |
| 250 nM | O=C(CCc1c(-c2ccccc2)[nH]c2c(F)cccc12)N[C@H]1CCNC1=O | – |
| > 1000 nM | CC(CC(=O)N[C@H]1CCNC1=O)c1c(-c2ccc(F)cc2)[nH]c2c(F)cc(F)cc12 (stereo not given in full) | – |
| > 1000 nM | O=C(N[C@H]1CCNC1=O)[C@H](O)Cc1c(-c2ccccc2)[nH]c2c(F)cc(F)cc12 | – |
| > 1000 nM | O=C(CCc1c(-c2ccc(F)cc2)[nH]c2cc(O)ccc12)N[C@H]1C(=O)NC[C@@H]1O | – |
| > 1000 nM | O=C(CCc1c(-c2ccccc2)[nH]c2c(C3=CCOC3)cccc12)N[C@@H]1C(=O)NC[C@H]1O | – |
| > 1000 nM | CC(CC(=O)N[C@@H]1C(=O)NC[C@H]1O)c1c(-c2ccc(F)cc2)[nH]c2c(F)cc(F)cc12 (stereo not given in full) | – |
| 250 nM | C[C@@H](Cc1c(-c2ccc(F)cc2)[nH]c2c(F)cc(F)cc12)C(=O)N[C@@H]1C(=O)NC[C@H]1O | – |
| < 250 nM | O=C(CSc1c(-c2ccc(F)cc2)[nH]c2ccccc12)N[C@@H]1C(=O)NC[C@H]1O | – |
| 250 nM | O=C(CCc1c(-c2ccc(F)cc2)[nH]c2c(F)cc(F)cc12)N[C@H]1C(=O)NC[C@@H]1O | – |
| < 250 nM | O=C(CCc1c(-c2ccc(OC(F)F)cc2)[nH]c2ccccc12)N[C@@H]1C(=O)NC[C@H]1O | – |
| > 1000 nM | O=C(CCc1c(-c2ccc(F)cc2)[nH]c2c(F)cc(F)cc12)NC1CC2(CC2)NC1=O (stereo not given) | – |
| > 1000 nM | O=C(CCc1c(-c2ccc(F)cc2)[nH]c2c(F)cc(F)cc12)N[C@H]1C[C@@H](CF)NC1=O | – |
| < 250 nM | O=C(CCc1c(-c2ccc(F)cc2)[nH]c2ccc(Cl)cc12)N[C@@H]1C(=O)NC[C@H]1O | – |
| < 250 nM | Cc1c(F)ccc2c(CCC(=O)N[C@@H]3C(=O)NC[C@H]3O)c(-c3ccc(F)cc3)[nH]c12 | – |

| IC50 [2] | SMILES | IC50 [1] |
| --- | --- | --- |
| < 250 nM | O=C(CCc1c(-c2ccc(F)cc2)[nH]c2cc(F)c(F)cc12)N[C@@H]1C(=O)NC[C@H]1O | – |
| > 1000 nM | O=C(N[C@@H]1C(=O)NC[C@H]1O)[C@H](O)Cc1c(-c2ccc(F)cc2)[nH]c2c(F)cc(F)cc12 | – |
| 250 nM | O=C(CCc1c(-c2ccc(F)cc2)[nH]c2c(F)c(F)ccc12)N[C@H]1CCNC1=O | – |
| 250 nM | Cc1cc(F)ccc1-c1[nH]c2ccccc2c1CCC(=O)N[C@@H]1C(=O)NC[C@H]1O | – |
| < 250 nM | Cc1c(F)ccc2c(CCC(=O)N[C@@H]3C(=O)NC[C@H]3O)c(-c3ccccc3)[nH]c12 | – |
| 250 nM | CC(C)c1cccc2c(CCC(=O)N[C@@H]3C(=O)NC[C@H]3O)c(-c3ccccc3)[nH]c12 | – |
| 250 nM | C=C(C)c1cccc2c(CCC(=O)N[C@@H]3C(=O)NC[C@H]3O)c(-c3ccccc3)[nH]c12 | – |
| < 250 nM | O=C(CCc1c(-c2ccc(F)cc2)[nH]c2c(Cl)cc(F)cc12)N[C@H]1CCNC1=O | – |
| > 1000 nM | C[C@H]1CNC(=O)[C@H]1NC(=O)CCc1c(-c2ccc(F)cc2)[nH]c2c(F)cc(F)cc12 | – |
| > 1000 nM | C[C@@H](Cc1c(-c2ccc(F)cc2)[nH]c2c(F)cc(F)cc12)C(=O)N[C@H]1CCNC1=O | – |
| < 250 nM | O=C(CCc1c(-c2ccccc2)[nH]c2c(F)cc(F)cc12)N[C@H]1CCNC1=O | – |
| < 250 nM | O=C(CCc1c(-c2ccccc2)[nH]c2c(Cl)cc(F)cc12)N[C@@H]1C(=O)NC[C@H]1O | – |
| < 250 nM | Cc1ccc(-c2[nH]c3c(F)cc(F)cc3c2CCC(=O)N[C@@H]2C(=O)NC[C@H]2O)cc1 | – |
| < 250 nM | O=C(CCc1c(-c2ccccc2)[nH]c2c(C3CC3)cccc12)N[C@@H]1C(=O)NC[C@H]1O | – |
| 250 nM | O=C(CCc1c(-c2ccc(F)cc2)[nH]c2ccccc12)N[C@H]1C(=O)NC[C@H]1O | – |
| < 250 nM | O=C(CCc1c(-c2ccccc2)[nH]c2c(Cl)cccc12)N[C@@H]1C(=O)NC[C@H]1O | – |
| < 250 nM | Cc1cccc2c(CCC(=O)N[C@@H]3C(=O)NC[C@H]3O)c(-c3ccc(F)cc3)[nH]c12 | – |
| < 250 nM | Cc1ccc(-c2[nH]c3c(F)cc(F)cc3c2CCC(=O)N[C@H]2CCNC2=O)cc1 | – |
| < 250 nM | O=C(CCc1c(-c2ccc(F)cc2)[nH]c2c(F)cc(OC(F)F)cc12)N[C@@H]1C(=O)NC[C@H]1O | – |

| IC50 [2] | SMILES | IC50 [1] |
| --- | --- | --- |
| > 1000 nM | COc1cccc2c(CCC(=O)N[C@H]3CCNC3=O)c(-c3ccc(F)cc3)[nH]c12 | – |
| > 1000 nM | O=C(CCc1c(-c2ccc(F)cc2)[nH]c2c(F)cc(F)cc12)N[C@H]1C[C@H](CF)NC1=O | – |
| > 1000 nM | O=C(CCc1c(-c2ccc(F)cc2)[nH]c2ccccc12)N[C@H]1C(=O)NC[C@@H]1O | – |
| > 1000 nM | O=C1NC[C@@H](O)[C@@H]1NC(=O)[C@@H](O)Cc1c(-c2ccc(F)cc2)[nH]c2c(F)cc(F)cc12 | – |
| < 250 nM | C=Cc1cccc2c(CCC(=O)N[C@@H]3C(=O)NC[C@H]3O)c(-c3ccccc3)[nH]c12 | – |
| > 1000 nM | O=C(CCc1c(-c2ccc(F)cc2)[nH]c2ccccc12)N[C@@H]1C(=O)NC[C@@H]1O | – |
| 250 nM | O=C(CCc1c(-c2ccccc2)[nH]c2c(C3CCOC3)cccc12)N[C@@H]1C(=O)NC[C@H]1O (stereo not given in full) | – |
| < 250 nM | O=C(CCc1c(-c2ccccc2)[nH]c2c(C(F)(F)F)cc(F)cc12)N[C@@H]1C(=O)NC[C@H]1O | – |
| 250 nM | O=C(CCc1c(-c2ccc(F)cc2)[nH]c2c(F)cc(Cl)cc12)N[C@@H]1CCNC1=O | – |
| 250 nM | O=C(CCc1c(-c2ccc(F)cc2)[nH]c2c(F)cc(F)cc12)N[C@H]1C(=O)NC[C@H]1O | – |
| < 250 nM | O=C(CCc1c(-c2ccc(Cl)cc2)[nH]c2c(Cl)cccc12)N[C@@H]1C(=O)NC[C@H]1O | – |
| 250 nM | CC(C)(O)c1cccc2c(CCC(=O)N[C@@H]3C(=O)NC[C@H]3O)c(-c3ccccc3)[nH]c12 | – |
| < 250 nM | Cc1cc(F)cc2c(CCC(=O)N[C@H]3CCNC3=O)c(-c3ccc(F)cc3)[nH]c12 | – |
| 250 nM | Cc1cc(F)c2[nH]c(-c3ccc(F)cc3)c(CCC(=O)N[C@H]3CCNC3=O)c2c1 | – |
| < 250 nM | O=C(CCc1c(-c2ccc(F)cc2)[nH]c2c(C(F)F)cc(F)cc12)N[C@@H]1C(=O)NC[C@H]1O | – |
| < 250 nM | Cc1ccc(-c2[nH]c3c(F)cc(F)cc3c2CCC(=O)N[C@@H]2CCNC2=O)cc1 | – |
| > 1000 nM | N#Cc1cccc(-c2[nH]c3ccc(F)cc3c2CCC(=O)N[C@H]2CCNC2=O)c1 | – |
| < 250 nM | O=C(CCc1c(-c2ccc(F)cc2)[nH]c2c(C(F)(F)F)cccc12)N[C@@H]1C(=O)NC[C@H]1O | – |

| SMILES | IC50 [2] | IC50 [1] |
| --- | --- | --- |
| O=C(CCc1c(-c2ccc(F)cc2)[nH]c2c(F)cc(F)cc12)N[C@@H]1C(=O)NC[C@@H]1O | < 250 nM | < 250 nM |
| N#Cc1ccc(-c2[nH]c3c(F)cc(F)cc3c2CCC(=O)N[C@H]2CCNC2=O)cc1 | < 250 nM | < 250 nM |
| N#Cc1cc(F)cc2c(CCC(=O)N[C@@H]3C(=O)NC[C@H]3O)c(-c3ccc(F)cc3)[nH]c12 | < 250 nM | < 250 nM |
| O=C(CCc1c(-c2ccc(F)cc2)[nH]c2c(F)cc(Br)cc12)N[C@H]1CCNC1=O | < 250 nM | < 250 nM |
| O=C(CCc1c(-c2ccccc2)[nH]c2c(F)cc(F)cc12)N[C@@H]1C(=O)NC[C@H]1O | < 250 nM | < 250 nM |
| O=C(CCc1c(-c2ccc(OC(F)F)cc2)[nH]c2c(F)cc(F)cc12)N[C@H]1CCNC1=O | < 250 nM | < 250 nM |
| COc1cc(F)cc2c(CCC(=O)N[C@@H]3C(=O)NC[C@H]3O)c(-c3ccc(F)cc3)[nH]c12 | < 250 nM | < 250 nM |
| O=C(CCc1c(-c2ccc(F)cc2)[nH]c2c(F)cc(F)cc12)N[C@H]1C[C@H](CO)NC1=O | > 1000 nM | > 1000 nM |
| CC1C[C@H](NC(=O)CCc2c(-c3ccc(F)cc3)[nH]c3c(F)cc(F)cc23)C(=O)N1 (stereo not given in full) | 250 nM | 250 nM |
| Cc1ccc2[nH]c(-c3ccc(Br)cc3)c(CCC(=O)N[C@H]3CCNC3=O)c2c1 | < 250 nM | < 250 nM |
| O=C(CCc1c(-c2ccc(F)cc2)[nH]c2c(F)cc(F)cc12)N[C@@H]1CCNC1=O | 250 nM | < 250 nM |
| O=C(CCc1c(-c2ccc(F)cc2)[nH]c2c(F)cc(F)cc12)N[C@H]1C[C@@H](CO)NC1=O | > 1000 nM | > 1000 nM |
| O=C(CCc1c(-c2ccc(F)cc2)[nH]c2c(F)cc(Cl)cc12)N[C@@H]1C(=O)NC[C@H]1O | < 250 nM | < 250 nM |
| O=C1C[C@H](NC(=O)CCc2c(-c3ccc(F)cc3)[nH]c3c(F)cc(F)cc23)C(=O)N1 | 250 nM | 250 nM |
| N#Cc1cc(F)c2[nH]c(-c3ccc(F)cc3)c(CCC(=O)N[C@H]3CCNC3=O)c2c1 | > 1000 nM | > 1000 nM |
| O=C(CCc1c(-c2ccc(F)cc2)[nH]c2ccc(F)cc12)N[C@H]1CCNC1=O | < 250 nM | < 250 nM |
| O=C(CCc1c(-c2ccc(F)cc2)[nH]c2c(F)cc(F)cc12)N[C@H]1CCNC1=O | < 250 nM | < 250 nM |
| O=C(CCc1c(-c2ccc(F)cc2)[nH]c2c(Cl)cc(F)cc12)N[C@@H]1C(=O)NC[C@H]1O | < 250 nM | < 250 nM |
| O=C1C[C@@H](NC(=O)CCc2c(-c3ccc(F)cc3)[nH]c3c(F)cc(F)cc23)C(=O)N1 | 250 nM | 250 nM |
| O=C(CCc1c(-c2ccccc2)[nH]c2ccc(Cl)cc12)N[C@@H]1C(=O)NC[C@H]1O | < 250 nM | < 250 nM |
| CC(=O)O[C@@H]1CNC(=O)[C@H]1NC(=O)CCc1c(-c2ccc(F)cc2)[nH]c2c(F)cc(F)cc12 | > 1000 nM | – |
| Cc1cc(F)cc2c(CCC(=O)N[C@@H]3C(=O)NC[C@H]3O)c(-c3ccc(F)cc3)[nH]c12 | < 250 nM | < 250 nM |
| Cc1cc(F)c2[nH]c(-c3ccc(F)cc3)c(CCC(=O)N[C@@H]3C(=O)NC[C@H]3O)c2c1 | < 250 nM | < 250 nM |
| CC1(NC(=O)CCc2c(-c3ccc(F)cc3)[nH]c3c(F)cc(F)cc23)CCNC1=O (stereo not given) | 250 nM | < 250 nM |
| O=C(CCc1c(-c2ccc(F)cc2)[nH]c2ccc(F)cc12)N[C@@H]1C(=O)NC[C@H]1O | < 250 nM | < 250 nM |
